Laboratory results reported in patent US7335756B2, “Retinoic acid metabolizing cytochrome P450” (Cytochroma Inc., priority 2001, dated 2008).

How the values were obtained:
P450RAI-3 [1] = target: T1, P450RAI-3 (Homo sapiens, UniProt Q6V0L0, F447L); experiment: [3H]-RA-metabolism inhibition in Sf9-Bac-P450RAI-3 insect microsomes; format: biochemical; conditions: 2 nM [3H]-RA, NADPH, 1 hour, read-out: ID50 (nM) Sf9-P450RAI-3
T1 sequence (Q6V0L0 1-522 F447L): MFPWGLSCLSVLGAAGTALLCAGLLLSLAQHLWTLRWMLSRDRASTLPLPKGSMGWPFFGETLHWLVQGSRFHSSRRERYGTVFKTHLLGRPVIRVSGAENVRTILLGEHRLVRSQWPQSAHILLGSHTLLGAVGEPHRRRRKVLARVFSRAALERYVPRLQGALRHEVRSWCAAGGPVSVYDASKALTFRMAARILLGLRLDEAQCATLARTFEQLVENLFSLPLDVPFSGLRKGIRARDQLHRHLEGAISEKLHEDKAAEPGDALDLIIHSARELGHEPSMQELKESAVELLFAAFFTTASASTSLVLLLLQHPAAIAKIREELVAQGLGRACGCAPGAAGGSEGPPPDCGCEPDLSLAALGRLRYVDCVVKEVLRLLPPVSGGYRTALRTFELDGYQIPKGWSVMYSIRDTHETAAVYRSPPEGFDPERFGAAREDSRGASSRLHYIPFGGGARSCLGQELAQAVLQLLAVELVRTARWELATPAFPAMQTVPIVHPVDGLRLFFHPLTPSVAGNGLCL
Procedure: Microsomes from P450RAI-3 and CYP26B infected Sf-9 cells were made as follows: exponentially growing cells were harvested, washed with ice-cold PBS, counted then homogenized and sonicated in lysis buffer containing protease inhibitors cocktail (10^8 cells par 5 ml lyses buffer). Since P450RAI-3 is a microsomal cytochrome, it preferably uses NADPH cytochromic P450 reductase and a flavoprotein for activity. The microsomes were isolated by differential centrifugations (10 min at 800×g, than 10 min at 10,000×g and finally the postmitichondirial supernatant was centrifuged at 100,000×g for 60 min using ultracentrifuge (Beckman). The microsomal pellet was isolated and homogenized gently in the storage buffer containing protease inhibitors cocktail. Protein concentration in the microsomal preparation was determined using a […] reaction assay kit with BSA as standards (Pierce). The absorbance at 562 nm of standards (BSA at 1, 0.5, 0.25, 0.125, and 0.0625 mg/ml) and 3 dilutions of microsomes samples (⅕, 1/10 and 1/20) was determined using an automatic microplate reader (μQuant, BioTek instruments Inc.). The protein concentration directly calculated by the software (KCJunior). […] Microsomes were assessed for P450 content by carbon monoxide assay and total P450 content was determined at 3 nmol/ml. […]

CYP26-B = target: T2, CYP26-B (Homo sapiens, UniProt Q9NR63); experiment: RA-metabolism cell based assay in CYP26-B-infected Sf9 cells; conditions: 2 nM [3H]-RA
T2 sequence (Q9NR63 1-512): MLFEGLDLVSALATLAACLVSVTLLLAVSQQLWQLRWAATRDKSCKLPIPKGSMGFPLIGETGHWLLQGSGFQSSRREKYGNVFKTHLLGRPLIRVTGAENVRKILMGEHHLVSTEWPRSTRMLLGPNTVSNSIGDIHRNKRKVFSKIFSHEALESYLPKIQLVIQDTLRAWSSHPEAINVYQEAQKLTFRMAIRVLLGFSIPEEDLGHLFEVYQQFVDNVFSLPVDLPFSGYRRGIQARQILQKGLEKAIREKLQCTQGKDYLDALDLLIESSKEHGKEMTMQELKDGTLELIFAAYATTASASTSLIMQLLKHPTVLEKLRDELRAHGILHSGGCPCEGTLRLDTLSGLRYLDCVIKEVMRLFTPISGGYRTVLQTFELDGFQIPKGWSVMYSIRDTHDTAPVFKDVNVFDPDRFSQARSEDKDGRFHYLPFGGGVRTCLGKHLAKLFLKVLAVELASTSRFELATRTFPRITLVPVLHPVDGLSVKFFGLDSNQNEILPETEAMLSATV
Procedure: Recombinant baculovirus expressing either P450RAI-3 or CYP26B (Bac-P450RAI-3 or Bac-CYP26B or CYP26B) was prepared and titrated by end-point dilution and infection of Sf9 cells in 96-well format. Baculovirus expressing vector was co-transfected into Sf9-insect cells. Infected cells were assessed for RA-metabolism after 72 hours post transfection using RA-metabolism cell based assay as follows: the RA-metabolism reaction was started by adding 50 μl of [^3H]-RA solution (20000 cpm, 2 nM final concentration) using an automatic repeating-pipette.
Cells were incubated for 3 hours. The reaction was stopped by adding 5 μl of 10% acetic acid. Organic and aqueous soluble radio-labelled metabolites were extracted using the Bligh-Dyer procedure.

P450RAI-3 [2] = target: T1, P450RAI-3; experiment: ATRA / 9-cis-RA metabolism in pcDNA-P450RAI-3 transfected Cos-1 cells (Bligh-Dyer, HPLC); format: cell-based; design: expressed in transfected cells; host or cells: COS-1 (transient, pcDNA-P450RAI-3, Fugene); conditions: 2 nM radio-labeled substrate, 3 hours
Procedure: Mammalian Cos-1 cells were transfected with either pcDNA-P450RAI-3 or pcDNA-control vector using Fugene™ (Roche diagnostic) according to the manufacturers directions. After 48 hours post-tranfection, cells were washed with PBS and assessed for ATRA-metabolism activity as described Briefly, transfected cells were incubated with radio-labeled ^3[H]-ATRA (18000 cpm, 2 nM) for 3 hours. Organic and Water-soluble metabolites were extracted using Bligh-Dyer procedure and radioactivity counted (FIG. 10).
HPLC analysis of the organic metabolites: the Bligh-Dyer organic button-layer was dried out and residues were suspended in HPLC solvent and then analyzed by HPLC as described in [White et al, PNAS, vol 97, pg 6403-6408], FIG. 11.
Mammalian Cos-1 cells were transfected with either pcDNA-P450RAI-3 or pcDNA-control vector according to the manufacturers directions using Fugene (Roche). After 48 hours post-tranfection, cells were washed with PBS and assessed for 9-cis-RA-metabolism activity as described using Bligh-Dyer procedure. Briefly, transfected cells were incubated with radio-labeled ^3[H]-9-cis-RA (38000 cpm, 2 nM) for 3 hours. Organic and Water-soluble metabolites were extracted using Bligh-Dyer procedure and radioactivity counted, FIG. 19.

SMILES: CC1=C(/C=C/C(C)=C/C=C/C(C)=C/C(=O)O)C(C)(C)CCC1 [ATRA, all-trans-retinoic-acid]
- IC50 (P450RAI-3 [1]): 20 nM
- metabolism by CYP26-B-infected Sf9-cells (CYP26-B): metabolized ATRA and converted it to water-soluble metabolites
- metabolism by P450RAI-3 (P450RAI-3 [2]): efficiently metabolize ATRA to polar metabolites
